Source: patent US8933230B2, “Phosphorus-containing group-substituted quinoline, its preparation process, medical composition containing the compounds and application” (priority 2011, dated 2015)

Tests used:
[1] = Body weight of GTL-16 tumor-bearing nude mice under treatment; assay type: in vivo, BALB/c-nu/nu mice; settings: after treating for 14 days, 50 mg/kg qd p.o.
Procedure: Firstly culturing the GTL-16 gastric cancer cells: GTL-16 cell line is inoculated in RPM 1-1640 culture solution containing 10% FBS, 100 U/ml penicillin, 100 U/ml streptomycin, and cultured at 37° C., 5% CO2, 100% humidity in a carbon dioxide cell incubator, the cells enter into logarithmic growth phase after 24 hours, after 48 hours of inoculation, the cells grow to cover the bottom of the culture bottle. Then the GTL-16 cells covering 80% bottom of the culture bottle are digested, 5 minutes after centrifuging at 1000 r/min, the cells are diluted to 2×10^7/ml and implanted subcutaneously in the right anterior axillary fossa with 0.1 ml per mouse. […]

[2] = tested on: GTL-16 human gastric cancer cells; test: Anti-tumor experiment, GTL-16 xenograft in nude mice; assay type: in vivo, BALB/c-nu/nu mice; settings: after 14 days, 50 mg/kg qd p.o.
From the text: Anti-tumor experiments: in this example, N1-[4-[[7-[3-(diethoxyphosphorylmethylamino)propoxyl]-6-methoxyl-4-quinolyl]oxyl]-3-fluorophenyl]-N1′-(4-fluorophenyl)cyclopropane-1,1-dicarboxamide obtained from Example 3 is used in the anti-tumor experiments in nude mice animal model of xenograft GTL-16 human gastric cancer cells, the methods and results are as follows:
7-8 weeks old SPF level female BALB/c-nu/nu mice with 16-20 g of body weights are purchased from Experimental Animal Center of Guangdong Province, inspection certificate number: NO:0072659. GTL-16 gastric cancer cells are purchased from the Cell Source Center of Shanghai Institutes for Biological Sciences. RPM 1-1640 cell culture medium, fetal calf serum (FBS) and digestive juice of trypsin are from Gibco Corporation. All the antibiotics are purchased from Sigma Company.
Firstly culturing the GTL-16 gastric cancer cells: GTL-16 cell line is inoculated in RPM 1-1640 culture solution containing 10% FBS, 100 U/ml penicillin, 100 U/ml streptomycin, and cultured at 37° C., 5% CO2, 100% humidity in a carbon dioxide cell incubator, the cells enter into logarithmic growth phase after 24 hours, after 48 hours of inoculation, the cells grow to cover the bottom of the culture bottle. […]

For `CCOP(=O)(CNCCCOc1cc2nccc(Oc3ccc(NC(=O)C4(C(=O)Nc5ccc(F)cc5)CC4)cc3F)c2cc1OC)OCC` [Example 3, N1-[4-[[7-[3-(diethoxyphosphorylmethylamino)propoxyl]-6-methoxyl-4-quinolyl]oxyl]-3-fluorophenyl]-N1′-(4-fluorophenyl)cyclopropane-1,1-dicarboxamide], the body weight change [1] was less than 5%, the “Tumor Growth Inhibition (TGI)” value [2] was 85% and the average tumor volume ([2]; mean±SD, n=8) was 57.1±61.2 mm^3.
